Data as given in patent US11945822B2, “Pyrazolo-triazine and/or pyrazolo-pxrimidine derivatives as selective inhibitor of cyclin dependent kinase” (QURIENT CO., LTD., priority 2018, dated 2024).
pIC50: −log10 of the molar value. Where two headings read alike, the source gives them in different places.

How the values were obtained:
CDK7/Cyclin H/MNAT1 = biological target: T1, CDK7/Cyclin H/MNAT1 (Homo sapiens, UniProt P50613); assay: Enzymatic assay for CDK7 (FRET based LANCE Ultra kinase assay); format: biochemical
T1 construct: purchased Invitrogen PR6749B
T1 sequence (P50613 whole entry): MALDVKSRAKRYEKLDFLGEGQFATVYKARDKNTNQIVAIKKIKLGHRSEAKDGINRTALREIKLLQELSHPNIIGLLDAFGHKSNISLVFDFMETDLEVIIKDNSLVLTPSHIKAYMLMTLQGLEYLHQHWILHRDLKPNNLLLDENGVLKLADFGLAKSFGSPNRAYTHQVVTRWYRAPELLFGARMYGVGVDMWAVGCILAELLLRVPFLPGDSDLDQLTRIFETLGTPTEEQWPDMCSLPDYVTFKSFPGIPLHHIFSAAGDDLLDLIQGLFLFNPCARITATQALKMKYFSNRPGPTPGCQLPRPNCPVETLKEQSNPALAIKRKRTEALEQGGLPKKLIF
T1 sequence (P51946 whole entry partner): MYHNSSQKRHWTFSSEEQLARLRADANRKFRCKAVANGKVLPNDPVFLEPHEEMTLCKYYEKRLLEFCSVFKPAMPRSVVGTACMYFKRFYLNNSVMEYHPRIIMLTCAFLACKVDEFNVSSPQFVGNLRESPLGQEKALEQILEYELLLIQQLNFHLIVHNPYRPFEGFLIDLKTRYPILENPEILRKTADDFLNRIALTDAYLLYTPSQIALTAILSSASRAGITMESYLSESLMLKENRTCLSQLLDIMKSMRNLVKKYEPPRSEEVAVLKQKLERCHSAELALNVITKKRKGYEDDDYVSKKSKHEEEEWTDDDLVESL
T1 sequence (P51948 whole entry partner): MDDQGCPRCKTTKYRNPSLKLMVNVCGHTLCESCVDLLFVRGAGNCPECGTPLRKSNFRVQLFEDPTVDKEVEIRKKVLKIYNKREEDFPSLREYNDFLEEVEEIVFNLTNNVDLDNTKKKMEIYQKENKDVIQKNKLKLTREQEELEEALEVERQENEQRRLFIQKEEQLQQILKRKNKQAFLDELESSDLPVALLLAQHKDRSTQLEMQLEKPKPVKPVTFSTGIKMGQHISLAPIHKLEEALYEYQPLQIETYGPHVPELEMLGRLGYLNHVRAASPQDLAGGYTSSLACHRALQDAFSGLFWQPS
In short: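 Inhibition was measured at Km ATP by time-resolved FRET between a Eu anti-phospho antibody and a phosphorylated ULight peptide. The enzyme was the purified CDK7/cyclin complex, and data were curve-fitted.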

CDK2/Cyclin A = biological target: T2, CDK2/Cyclin A (Homo sapiens, UniProt P24941); assay: Enzymatic assay for CDK2 (FRET based LANCE Ultra kinase assay); format: biochemical
T2 construct: purchased Invitrogen PV6290
In short: (§1)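 TR-FRET (LANCE Ultra) kinase assay at ATP Km, ULight-MBP peptide substrate (68 nM), 8-dose 4-fold compound series in DMSO. Enzymes: […]; 60 min at 23° C., stopped with EDTA plus Eu-anti-phospho-MBP antibody, read 665/615 nm after 60 min.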

CDK5/p25 = biological target: T3, CDK5/p25 (Homo sapiens, UniProt Q00535); assay: Enzymatic assay for CDK5 (FRET based LANCE Ultra kinase assay); format: biochemical
T3 construct: purchased Invitrogen PR8543B
T3 sequence (Q00535 whole entry): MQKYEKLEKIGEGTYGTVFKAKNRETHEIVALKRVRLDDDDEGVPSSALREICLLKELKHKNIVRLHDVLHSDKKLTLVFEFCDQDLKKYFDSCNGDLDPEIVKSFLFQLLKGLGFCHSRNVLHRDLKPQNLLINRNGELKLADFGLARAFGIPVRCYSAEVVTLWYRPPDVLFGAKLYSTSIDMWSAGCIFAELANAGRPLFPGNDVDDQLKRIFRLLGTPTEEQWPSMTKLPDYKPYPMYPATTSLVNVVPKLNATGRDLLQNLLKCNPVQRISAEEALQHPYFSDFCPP
T3 sequence (Q15078 99-307 partner limits assumed): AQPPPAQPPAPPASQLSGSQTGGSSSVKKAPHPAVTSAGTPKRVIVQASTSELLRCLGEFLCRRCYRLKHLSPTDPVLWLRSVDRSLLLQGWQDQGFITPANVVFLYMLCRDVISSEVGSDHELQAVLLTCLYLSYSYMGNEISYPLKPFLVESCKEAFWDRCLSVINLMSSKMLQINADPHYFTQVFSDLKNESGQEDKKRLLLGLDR
In short: as §1

H460 = assay: Cellular H460 viability assay (CellTiter-Glo, 72 hours); format: cell-based; details: Homo sapiens, NCI-H460
In short: (§2)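 CellTiter-Glo luminescence read in duplicate after 72 h compound exposure (37 °C, 5% CO2); DMSO-only control, final DMSO under 0.1%.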

A2780 = assay: Cellular A2780 viability assay (CellTiter-Glo, 72 hours); format: cell-based; details: Homo sapiens
In short: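 Compound exposure lasted 72 h at 37° C, 5% CO2, over 0.0015–10 uM, DMSO kept under 0.1%, with dosing 24 h after seeding. Seeding: A2780 1×10^3, OVCAR-3 5×10^3, MM.1S 1×10^4 cells/well in 10% FBS RPMI-1640. Duplicate CellTiter-Glo luminescence readout.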

MV4-11 = assay: Cellular MV4-11 viability assay (CellTiter-Glo, 72 hours); format: cell-based; details: Homo sapiens
In short: as §2

CDK1/Cyclin B = biological target: T4, CDK1/Cyclin B (Homo sapiens, UniProt P06493); assay: Enzymatic assay for CDK1 (FRET based LANCE Ultra kinase assay); format: biochemical
T4 construct: purchased Invitrogen PR4768C
T4 sequence (P06493 whole entry): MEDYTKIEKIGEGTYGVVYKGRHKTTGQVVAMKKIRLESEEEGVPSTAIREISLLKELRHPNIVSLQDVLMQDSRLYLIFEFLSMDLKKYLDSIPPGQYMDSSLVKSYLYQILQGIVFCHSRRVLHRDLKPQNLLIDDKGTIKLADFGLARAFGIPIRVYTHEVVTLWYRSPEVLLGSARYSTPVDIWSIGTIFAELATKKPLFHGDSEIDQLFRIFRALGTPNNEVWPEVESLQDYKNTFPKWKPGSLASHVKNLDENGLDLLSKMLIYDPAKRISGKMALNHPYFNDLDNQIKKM
T4 sequence (P14635 whole entry partner): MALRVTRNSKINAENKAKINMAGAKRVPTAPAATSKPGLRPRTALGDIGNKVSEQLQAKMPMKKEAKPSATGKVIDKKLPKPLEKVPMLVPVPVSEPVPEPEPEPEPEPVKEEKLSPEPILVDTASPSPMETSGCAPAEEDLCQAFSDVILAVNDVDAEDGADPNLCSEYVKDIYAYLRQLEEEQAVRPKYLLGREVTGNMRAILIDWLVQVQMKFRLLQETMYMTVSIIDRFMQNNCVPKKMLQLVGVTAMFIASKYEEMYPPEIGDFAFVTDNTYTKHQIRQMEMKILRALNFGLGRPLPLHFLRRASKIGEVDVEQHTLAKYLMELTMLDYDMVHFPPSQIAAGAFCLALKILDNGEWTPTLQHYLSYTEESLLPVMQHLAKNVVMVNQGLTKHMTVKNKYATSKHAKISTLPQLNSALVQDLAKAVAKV
In short: as §1

RPMI-8226 = assay: Cellular RPMI-8226 viability assay (CellTiter-Glo, 72 hours); format: cell-based; details: Homo sapiens
In short: as §2

MM.1S = assay: Cellular MM.1S viability assay (CellTiter-Glo, 72 hours); format: cell-based; details: Homo sapiens, MM1.S
Excerpt: Human T-cell acute lymphoblastic leukemia cell line, MOLT-4 (ATCC, Cat #CRL-1582), Human multiple myeloma cell line, RPMI-8226 (Invitrogen, Cat #22400-089) and MM.1S (ATCC, Cat #CRL-2974), NSCLC (Non-small cell lung cancer) cell line H460 (ATCC, Cat #HTB-177), Human colon colorectal carcinoma cell line HCT116 (ATCC, Cat #CCL-247), Human acute monocytic leukemia cell line MV4-11 (ATCC, Cat #CRL-9591), OVCAR-3 (ATCC, Cat #HTB-161) and A2780 (ECACC, Cat #93112519) were obtained from ATCC. Cells were grown in RPMI-1640 media (Invitrogen, Cat #22400-089) supplemented with 10% FBS (Invitrogen, Cat #10099141) and 1% penicillin/streptomycin (Invitrogen, Cat #15070063) and cultured at 37° C., 5% CO2 in a humidified chamber. All cell lines were routinely tested for mycoplasma.
The effect of the CDK7 inhibitor to inhibit the growth of target cancer cells was evaluated through the 72 hours time period of viability assay. Briefly, the candidate cell line ware plated in 96 well plate at the following density of cells respectively. 1×10^4 cells/well for MOLT-4, RPMI-8226, MV4-11 and MM.1S, 5×10^3 for H460, HCT116 and OVCAR-3 and IX 10^3 for A2780. After 24 hours, the cells were treated with various concentrations of the compound (ranging from 0.0015 uM to 10 uM). DMSO solvent without compound served as a control and final DMSO concentration less than 0.1%. After 72 hours of incubation at 37° C., 5% CO2 incubator, cells were analyzed for the viability using the CellTiter-Glo Luminescent Cell Viability Assay (Promega, Cat #G7570). All viability assays were performed in duplicate and Luminescence was read using an Envision (Perkin Elmer, USA). Data was analyzed using XLfit software.

MOLT-4 = assay: Cellular MOLT-4 viability assay (CellTiter-Glo, 72 hours); format: cell-based; details: Homo sapiens, MOLT4 viability assay
In short: as §2

HCT116 = assay: Cellular HCT116 viability assay (CellTiter-Glo, 72 hours); format: cell-based; details: Homo sapiens, HCT-116
In short: as §2

[1] = read-out: CDK7 enzymatic activity (IC50 range)
[2] = read-out: CDK2 enzymatic activity (IC50 range)
[3] = read-out: CDK5 enzymatic activity (IC50 range)
[4] = read-out: CDK1 enzymatic activity (IC50 range)

| SMILES | pIC50 (H460) | pIC50 (A2780) | pIC50 (MV4-11) | pIC50 (RPMI-8226) | CDK1/CDK7: Selectivity of CDK7 inhibition over CDK1 inhibition (CDK7/Cyclin H/MNAT1; CDK7 over CDK1) | CDK2/CDK7: Selectivity of CDK7 inhibition over CDK2 inhibition (CDK7/Cyclin H/MNAT1; CDK7 over CDK2) | CDK5/CDK7: Selectivity of CDK7 inhibition over CDK5 inhibition (CDK7/Cyclin H/MNAT1; CDK7 over CDK5) | pIC50 (CDK7/Cyclin H/MNAT1; [1]) | pIC50 (MM.1S) | pIC50 (CDK2/Cyclin A; [2]) | pIC50 (CDK5/p25; [3]) | pIC50 (CDK1/Cyclin B; [4]) | other results |
| --- | --- | --- | --- | --- | --- | --- | --- | --- | --- | --- | --- | --- | --- |
| CC(C)c1cnn2c(NCc3ccccc3-c3cc4ccccc4[nH]3)nc(NCC3CNCCO3)nc12 (racemic) [Compound 274] | > 6.00 | ≥ 6.00 | > 6.00 | 5.00 to 6.00 | – | – | – | – | – | – | – | – | CDK1/CDK7: Selectivity of CDK7 inhibition over CDK1 inhibition (CDK7/Cyclin H/MNAT1; CDK1/CDK7): A (A=greater than 200 fold); CDK2/CDK7: Selectivity of CDK7 inhibition over CDK2 inhibition (CDK7/Cyclin H/MNAT1; CDK2/CDK7): B (B=less than 200 fold, but greater than 20 fold); CDK5/CDK7: Selectivity of CDK7 inhibition over CDK5 inhibition (CDK7/Cyclin H/MNAT1; CDK5/CDK7): B (B=less than 200 fold, but greater than 20 fold); pIC50 (CDK7/Cyclin H/MNAT1; read-out: CDK7 enzymatic activity (IC50 activity range)): > 7.00; pIC50 (CDK2/Cyclin A; read-out: CDK2 enzymatic activity (IC50 activity range)): < 6.00; pIC50 (CDK5/p25; read-out: CDK5 enzymatic activity (IC50 activity range)): 6.00 to 7.00; pIC50 (CDK1/Cyclin B; read-out: CDK1 enzymatic activity (IC50 activity range)): < 6.00 |
| Cc1[nH]c(-c2ccccc2CNc2nc(N3CCC(N)CC3)nc3c(C(C)C)cnn23)nc1C(=O)NC1CCOCC1 [Compound 178] | > 6.00 | – | > 6.00 | – | A (A=greater than 200 fold) | B (B=less than 200 fold, but greater than 20 fold) | C (C=less than 20 fold) | > 7.00 | ≥ 6.00 | 6.00 to 7.00 | > 7.00 | < 6.00 | – |
| CNC(=O)c1cccc(F)c1CNc1nc(N2CCC(N)CC2)nc2c(C(C)(C)C)cnn12 [Compound 20] | > 6.00 | – | > 6.00 | – | A (A=greater than 200 fold) | A (A=greater than 200 fold) | A (A=greater than 200 fold) | > 7.00 | 5.00 to 6.00 | < 6.00 | < 6.00 | < 6.00 | – |
| CC(C)c1cnn2c(NCc3ccccc3-c3cc4ccccc4[nH]3)nc(N3CCOC(CN)C3)nc12 (racemic) [Compound 130] | > 6.00 | ≥ 6.00 | > 6.00 | > 6.00 | A (A=greater than 200 fold) | B (B=less than 200 fold, but greater than 20 fold) | B (B=less than 200 fold, but greater than 20 fold) | > 7.00 | – | 6.00 to 7.00 | 6.00 to 7.00 | < 6.00 | – |
| CC(C)c1cnn2c(NCc3ccccc3-n3cc4cc(C(=O)NC5COC5)ccc4n3)nc(N3CCC(N)CC3)nc12 [Compound 176] | > 6.00 | – | > 6.00 | – | B (B=less than 200 fold, but greater than 20 fold) | B (B=less than 200 fold, but greater than 20 fold) | B (B=less than 200 fold, but greater than 20 fold) | > 7.00 | ≥ 6.00 | 6.00 to 7.00 | 6.00 to 7.00 | 6.00 to 7.00 | – |
| CC(C)c1cnn2c(NCc3ccccc3-n3cccn3)nc(N3CCNCC3)nc12 [Compound 2] | > 6.00 | ≥ 6.00 | > 6.00 | – | A (A=greater than 200 fold) | B (B=less than 200 fold, but greater than 20 fold) | B (B=less than 200 fold, but greater than 20 fold) | 6.00 to 7.00 | – | 6.00 to 7.00 | 6.00 to 7.00 | < 6.00 | pIC50 (MOLT-4): 5.00 to 6.00 |
| CC(C)c1cnn2c(NCc3ccccc3-c3cc4ccccc4[nH]3)nc(N3CCC(N)(CO)CC3)nc12 [Compound 129] | > 6.00 | ≥ 6.00 | > 6.00 | > 6.00 | A (A=greater than 200 fold) | A (A=greater than 200 fold) | B (B=less than 200 fold, but greater than 20 fold) | > 7.00 | – | 6.00 to 7.00 | 6.00 to 7.00 | < 6.00 | – |
| CC(C)(C)c1cnn2c(NCc3c(F)cccc3-n3cccn3)nc(N3CCC(N)CC3)nc12 [Compound 13] | > 6.00 | – | – | – | A (A=greater than 200 fold) | B (B=less than 200 fold, but greater than 20 fold) | B (B=less than 200 fold, but greater than 20 fold) | > 7.00 | ≥ 6.00 | < 6.00 | 6.00 to 7.00 | < 6.00 | – |
| Cc1cccc(-n2ccc(C(C)(C)O)n2)c1CNc1nc(N2CCC(N)CC2)nc2c(C(C)C)cnn12 [Compound 230] | > 6.00 | ≥ 6.00 | > 6.00 | – | A (A=greater than 200 fold) | A (A=greater than 200 fold) | A (A=greater than 200 fold) | > 7.00 | – | < 6.00 | < 6.00 | < 6.00 | pIC50 (HCT116): > 6.00 |
| CC(C)c1cnn2c(NCc3ccccc3-n3cccn3)nc(N3CCC(O)CC3)nc12 [Compound 4] | 5.00 to 6.00 | 5.00 to 6.00 | – | – | B (B=less than 200 fold, but greater than 20 fold) | B (B=less than 200 fold, but greater than 20 fold) | B (B=less than 200 fold, but greater than 20 fold) | > 7.00 | – | 6.00 to 7.00 | 6.00 to 7.00 | < 6.00 | pIC50 (MOLT-4): < 5.00 |
